Data on 14 compounds can be found in US4493837A, “Theobromine derivatives” (Eisai Co., Ltd., priority 1979, dated 1985).

Experiment [1] relates to phenylquinone-induced writhing in mice. Put plainly: Analgesic action: anti-writhing activity in mice (phenylquinone). Type of experiment: in vivo. Conditions: 4 mice. As for the experimental part: The analgesic action of the compounds of the present invention was examined by the following experiment, using the writhing method disclosed in E. Siegmund et al; Proc. Soc. Exp. Biol. & Med., Vol. 95, 729 (1957).
Thirty minutes after subcutaneous injection of the compounds of the present invention, 2 mg/kg of phenylquinone was injected intraperitoneally to the mice. And 5 minutes later, the total number of writhes was counted for 4 minutes. Four mice were used for each dose level.
A general note: In writhing tests, fewer writhes than in controls are read as antinociception.

Experiment [2] concerns fighting behavior in mice. Briefly: Inhibition of the fighting behavior in mice. It counts as in vivo. Conditions: for No. of fighting episodes: one hour after administration, 10 experiments. The source says: The anti-fighting action was examined in the following experiment, using the method disclosed in Ralph E. Tedeshi et al, Journal of Pharmacology and Experimental Therapeutics, Vol. 125, 28-34 (1959).
A pair of mice was placed in a plastic cage (16×10×18 cm) with the grid floor and applied electrical shocks (3 mA, 5 Hz, 50 msec.) during a 3-minutes period to their feet to induce the fighting behavior between the mice.
In this experiment, each sample (the compounds of the present invention, and chlorpromazine and diazepam as control medicines) was prepared in a form of a 5% arabic gum suspension and was orally administered to the mice. One hour after oral administration, the fighting behavior was observed. A 5% arabic gum solution was administered to the control group. Ten pairs of mice were used for each dose level.

The subject of experiment [3] is grooming behavior in mice. Briefly: Inhibition of grooming behavior in mice. Type of experiment: in vivo. Conditions: for Number of grooming responses: 20-minutes count, 10 mice. As for the experimental part: The grooming behavior-inhibiting action of the compounds of the present invention was examined by the following experiments, using the method disclosed in O. Rohte; Psychopharmacologia, Vol. 14, 18-22 (1969).
In this experiment, each sample (the compounds of the present invention, and chlorpromazine and diazepam as control medicines) was prepared in a form of 5% arabic gum suspension of 0.1 ml/10 g body weight of the animal.
Forty minutes after oral administration of each sample, the oily ink was painted on each mouse. And 10 minutes later, the number of grooming responses was counted for a 20-minutes period. A 5% arabic gum solution alone was administered to the control group.

Experiment [4] deals with femoral artery blood flow. Put plainly: Blood flow-increasing action (average femoral artery blood flow after intraarterial injection, relative to papaverine). Type of experiment: in vivo, mongrel dogs. Particulars: anesthetized dogs, dose 0.03, 0.003 or 0.0003 mg/kg, papaverine 0.03 mg/kg = 1.00. As for the experimental part:
The blood flow at a femoral artery is measured by each of four male and female mongrel dogs weighing from 10 to 14 kg. That is, each subject is anesthetized by injecting intravenously 30 mg/kg of pentobarbital and one side femoral artery is exposed. A probe (2.5 mm diameter) of a magnetic blood flow meter (Model MF-26, a product of Nihon-Koden K.K.) is fitted to this artery and a catheter is inserted into and fixed to a side branch of this femoral artery. Intraarterial injection of 0.1 ml of the sample is then made and the average blood flow is measured. The dose of the sample is 0.03 mg/kg. When the blood flow-increasing action is strong, the dose is made 0.003 mg/kg and when the blood flow-increasing action is even stronger, it is made 0.0003 mg/kg in order to conduct the experiments. […] The numerical values in Table 1 represent the relative values of the compounds of this invention when the height of the blood flow-increase curve obtained by administration of 0.03 mg/kg papaverine is arbitrarily assigned the value 1.00. In other words, these values represent the ratio of the efficacy of the compounds of this invention relative to the activity of papaverine, with the latter being assigned the value 1.

Structures are written as SMILES.

In the case of `Cn1cnc2c1c(=O)n(CCCCCCN1CCN(c3ccccc3Cl)CC1)c(=O)n2C`, the “% Inhibition (writhing)” value in experiment [1] (0.25 mg/kg s.c.) was 10%; in experiment [1] (0.5 mg/kg s.c.), 70%; in experiment [1] (1.0 mg/kg s.c.), 80%; in experiment [1] (2.5 mg/kg s.c.), 90%; in experiment [1] (5.0 mg/kg s.c.), 100%.
Consider `COc1ccccc1N1CCN(CCCCn2c(=O)c3c(ncn3C)n(C)c2=O)CC1` [drawing 20], for which, in experiment [2] (0.625 mg/kg P.O.), the “% Inhibition (fighting episodes)” value was 41% and the “No. of fighting episodes” value is listed as 3.3 ± 0.7. Further, in experiment [2] (2.5 mg/kg P.O.), the “% Inhibition (fighting episodes)” value came out at 71% and the “No. of fighting episodes” value worked out at 1.6.
Regarding `Cn1cnc2c1c(=O)n(CCCCN1CCN(c3cccc(C(F)(F)F)c3)CC1)c(=O)n2C` [drawing 17], the “% Inhibition (grooming responses)” value is 49% in experiment [3] (0.625 mg/kg P.O.), 46% in experiment [3] (2.5 mg/kg P.O.), 95% in experiment [3] (10 mg/kg P.O.) and 100% in experiment [3] (40 mg/kg P.O.). The “Number of grooming responses” value in experiment [3] (0.625 mg/kg P.O.) stood at 15.5 ± 5.8; in experiment [3] (2.5 mg/kg P.O.), 16.5 ± 5.9; in experiment [3] (10 mg/kg P.O.), 1.6 ± 1.6; in experiment [3] (40 mg/kg P.O.) it was 0.
For the compound `CN1C(=O)CN=C(c2ccccc2)c2cc(Cl)ccc21` [diazepam, reference compound], the figures for the “% Inhibition (fighting episodes)” value in experiment [2] (0.625 mg/kg P.O.) and in experiment [2] (1.25 mg/kg P.O.) were 29% and 63%, respectively. Moreover, the “No. of fighting episodes” value came to 4.0 ± 1.0 in experiment [2] (0.625 mg/kg P.O.) and 2.1 ± 0.9 in experiment [2] (1.25 mg/kg P.O.). Besides, the “% Inhibition (grooming responses)” value in experiment [3] (0.625 mg/kg P.O.) turned out to be 53%; in experiment [3] (2.5 mg/kg P.O.), 68%; in experiment [3] (10 mg/kg P.O.) it was 75%. Moreover, the “Number of grooming responses” value amounted to 14.3 ± 4.2 in experiment [3] (0.625 mg/kg P.O.), 9.5 ± 5.2 in experiment [3] (2.5 mg/kg P.O.) and 7.6 ± 3.2 in experiment [3] (10 mg/kg P.O.).
On to `Cn1cnc2c1c(=O)n(CCCCN1CCN(c3cccc(C(F)(F)F)c3)CC1)c(=O)n2C` [drawing 19], for which, in experiment [2] (0.625 mg/kg P.O.), the “% Inhibition (fighting episodes)” value was found to be 25% and the “No. of fighting episodes” value was 4.2 ± 0.7. Moreover, in experiment [2] (2.5 mg/kg P.O.), the “% Inhibition (fighting episodes)” value came to 81% and the “No. of fighting episodes” value stood at 1.0.
Consider `Cc1cccc(C)c1N1CCN(CCCCn2c(=O)c3c(ncn3C)n(C)c2=O)CC1`, for which the “% Inhibition (writhing)” value in experiment [1] (2.5 mg/kg s.c.) is 0%; in experiment [1] (5.0 mg/kg s.c.), 53%; in experiment [1] (10.0 mg/kg s.c.) it was 77%; in experiment [1] (25.0 mg/kg s.c.), 85%.
Take `COc1ccccc1N1CCN(CCn2c(=O)c3c(ncn3C)n(C)c2=O)CC1`: the “Specific activity (blood flow increase relative to papaverine = 1)” value in experiment [4] is 95.
`COc1ccccc1N1CCN(CCCCn2c(=O)c3c(ncn3C)n(C)c2=O)CC1` [drawing 18]: the “% Inhibition (grooming responses)” value was 23% in experiment [3] (0.625 mg/kg P.O.), 49% in experiment [3] (2.5 mg/kg P.O.), 68% in experiment [3] (10 mg/kg P.O.) and 100% in experiment [3] (40 mg/kg P.O.). The “Number of grooming responses” value in experiment [3] (0.625 mg/kg P.O.) is 23.4 ± 6.1; in experiment [3] (2.5 mg/kg P.O.) it was 15.6 ± 4.5; in experiment [3] (10 mg/kg P.O.), 9.5 ± 4.1; in experiment [3] (40 mg/kg P.O.), 0.
With `CN(C)CCCN1c2ccccc2Sc2ccc(Cl)cc21` [chlorpromazine, reference compound], the “% Inhibition (fighting episodes)” value in experiment [2] (0.625 mg/kg P.O.) is given as 30%; in experiment [2] (2.5 mg/kg P.O.) it was 45%. Moreover, the “No. of fighting episodes” value came out at 3.9 ± 0.8 in experiment [2] (0.625 mg/kg P.O.) and 3.1 ± 1.0 in experiment [2] (2.5 mg/kg P.O.). The “% Inhibition (grooming responses)” value stood at 30% in experiment [3] (0.625 mg/kg P.O.), 91% in experiment [3] (2.5 mg/kg P.O.), 61% in experiment [3] (10 mg/kg P.O.) and 80% in experiment [3] (40 mg/kg P.O.). For the same compound, the “Number of grooming responses” value in experiment [3] (0.625 mg/kg P.O.) came to 21.4 ± 4.3; in experiment [3] (2.5 mg/kg P.O.), 2.9 ± 2.9; in experiment [3] (10 mg/kg P.O.), 5.8 ± 5.8; in experiment [3] (40 mg/kg P.O.) it was 5.9 ± 5.9.
With `Cn1cnc2c1c(=O)n(CCCCCN1CCN(c3ccccc3)CC1)c(=O)n2C`, the “Specific activity (blood flow increase relative to papaverine = 1)” value in experiment [4] worked out at 247.
As for `COc1ccc(Cc2nccc3cc(OC)c(OC)cc23)cc1OC` [Papaverine, reference compound], in experiment [4], the “Specific activity (blood flow increase relative to papaverine = 1)” value is 1.
Still for that read-out and setting: in the case of `COc1ccccc1N1CCN(CCCCCCn2c(=O)c3c(ncn3C)n(C)c2=O)CC1` it was 404; in that of `COc1ccccc1N1CCN(CCCn2c(=O)c3c(ncn3C)n(C)c2=O)CC1`, 143.
Turning to `Cn1cnc2c1c(=O)n(CCCCCN1CCN(c3ccccc3Cl)CC1)c(=O)n2C`, the “% Inhibition (writhing)” value in experiment [1] (1.0 mg/kg s.c.) is recorded as 0%; in experiment [1] (2.5 mg/kg s.c.), 56%; in experiment [1] (5.0 mg/kg s.c.), 87%; in experiment [1] (10.0 mg/kg s.c.), 100%.
